Measured values as given in PMC5477094, “Antiresorptive effect of a cathepsin K inhibitor ONO-5334 and its relationship to BMD increase in a phase II trial for postmenopausal osteoporosis” (BMC Musculoskeletal Disorders, 2017).
Where two headings read alike, the source gives them in different places.

What was measured:
[1] = set-up: method as in earlier work; details: at morning on 12 month in the OCEAN study, full analysis set, cited from earlier work
[2] = test system: serum C-telopeptide of type I collagen (sCTX); set-up: method as in PMID 26188109; details: PKPD study, SR tablets, cited from earlier work
[3] = test system: postmenopausal women with osteoporosis or osteopenia; set-up: method as in PMID 21312264, PMID 23873670; details: 300 mg QD, OCEAN study; cited from earlier work
[4] = Solubility of ONO-5334; type: physicochemical; details: at acidic pH
[5] = test system: postmenopausal women with osteoporosis or osteopenia; test: BMD increase (DXA) in the OCEAN study and linear regression against mean sCTX inhibition over 24 h; type: in vivo, human; details: at 1 year
Experimental: PK data at 50 mg BID, 100 mg QD and 300 mg QD were used from the 15-day multiple-dosing cohort in a phase 1 study of ONO-5334 IR tablets (MAD study, n = 96). The MAD study was a randomized, double-blind, single-center study conducted at the Kendle Clinical Pharmacology Unit, Utrecht, The Netherlands, from April to November 2006 (EudraCT: not applicable). The sigmoidal relationship (Emax model) between plasma ONO-5334 concentrations and sCTX inhibition was taken from a study using SR tablets of ONO-5334 (PKPD study, n = 10). The PKPD study was a phase 1, 2-part (4- and 2-way crossover), open-label, randomized trial conducted at Pharmaceutical Profiles, Ruddington, Nottingham, United Kingdom, from January 2008 to April 2008 (European Union Clinical Trials Register [EudraCT]: 2007–005206-47). Data for sCTX inhibition and increase in BMD after 1 year of treatment were taken from the OCEAN study (n = 285). […]
The relationship of sCTX inhibition for 24 h and the mean increase in BMD for the lumbar spine (L1-L4) and total hip after 1 year of treatment in the OCEAN study were analyzed. BMD in the OCEAN study was measured using dual-energy X-ray absorptiometry (DXA) (Prodigy, GE Lunar, Madison, WI, USA). […]

[6] = at 12 h after administration in MAD study, cited from earlier work
[7] = test system: postmenopausal women with osteoporosis or osteopenia; set-up: method as in PMID 21312264, PMID 23873670; details: OCEAN study, cited from earlier work
[8] = cited from earlier work
[9] = test system: serum C-telopeptide of type I collagen (sCTX); test: Simulation of sCTX inhibition from plasma ONO-5334 concentrations with sigmoidal Emax model; set-up: species or system human
Source text: PK data from the MAD study and the relationship between plasma ONO-5334 levels and sCTX inhibition in healthy postmenopausal women obtained from the PKPD study were used in simulation of the antiresorptive effect of ONO-5334 [29, 31]. Our previous PK data for 14 days after repeated administration were also used in the simulation. sCTX inhibition for doses and regimens in the OCEAN study were simulated using plasma ONO-5334 levels and the sigmoidal Emax model in the PKPD study (Fig. 1). The sigmoidal Emax model was fitted to data using log-transformed ONO-5334 plasma concentrations and effects on sCTX inhibition, using the following equation [32]. Effect=E0+Emax×C^r/EC50r+C^r

solubility [4]: high | Cmax relative to the concentration required for 99% Emax ([9]; 50 mg BID): 4 times | Cmax relative to the concentration required for 99% Emax ([9]; 100 mg QD): 14 times | Cmax relative to the concentration required for 99% Emax ([9]; 300 mg QD): 56 times
Structure (SMILES): C[C@@H]1CS/C(=N\NC(=O)C(=O)[C@@H](NC(=O)C2CCCCCC2)C2CCOCC2)N1C [ONO-5334]
Plasma ONO-5334 concentration (Mean ± SD) ([1]; 50 mg BID): 2.51 ± 1.60 ng/mL | Plasma ONO-5334 concentration (Mean ± SD) ([1]; 100 mg QD): 4.51 ± 3.26 ng/mL | Plasma ONO-5334 concentration (Mean ± SD) ([1]; 300 mg QD): 14.4 ± 10.6 ng/mL | effect span (Emax) of sigmoidal Emax model for sCTX [2]: −54.0% | half-maximal effective concentration of ONO-5334 (EC50) for sCTX inhibition ([2]; plasma concentration): 2.07 ng/mL | safety [3]: no safety concerns | maximum BMD increase (100% Emax for 24 h) calculated by linear regression ([5]; lumbar spine): 4.85% | maximum BMD increase (100% Emax for 24 h) calculated by linear regression ([5]; total hip): 3.05% | Plasma ONO-5334 concentration (Mean ± SD) ([6]; 50 mg BID): 1.82 ± 0.33 ng/mL | Plasma ONO-5334 concentration (Mean ± SD) ([6]; 100 mg QD): 2.74 ± 0.99 ng/mL | Plasma ONO-5334 concentration (Mean ± SD) ([6]; 300 mg QD): 14.5 ± 6.33 ng/mL | effect on BMD ([7]; 50 mg BID and 300 mg QD): increased BMD at all measured sites | efficacy for increasing BMD compared to 50 mg BID and 300 mg QD ([7]; 100 mg QD): less efficacy | PK parameters, Cmax and AUC, postprandial administration compared with a fasted state [8]: do not differ significantly | time for trough plasma ONO-5334 level to reach steady state ([8]; repeated administration, after the first administration, earlier phase I studies): 2 days
